What follows are compounds tested against T1, human full-length recombinant PKC βII (Homo sapiens, UniProt P05771) (assay: Determination of PKC βII inhibition (Caliper mobility-shift kinase assay, Fluorescein-RFARKGSLRQKNV peptide substrate)). Conditions: example compounds at a final concentration of 1.14 μM (±0.15 μM).
T1 construct: Active human full-length recombinant PKC βII; purchased Invitrogen GmbH, Darmstadt, Germany
Format: biochemical
Method in brief: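 Full-length PKC βII (30 ng/ml in pre-dilution) with PS/DAG/Ca2+ activators, pH 7.4; fluorescein peptide and ATP at 3 μM and 120 μM before mixing. Reaction ran 60 min at 32 °C, was EDTA-stopped, and was read by mobility shift. % inhibition came from product/(substrate+product) peak heights, tested at 1.14 μM final.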

T1 sequence (P05771 1-673 isoform P05771-2): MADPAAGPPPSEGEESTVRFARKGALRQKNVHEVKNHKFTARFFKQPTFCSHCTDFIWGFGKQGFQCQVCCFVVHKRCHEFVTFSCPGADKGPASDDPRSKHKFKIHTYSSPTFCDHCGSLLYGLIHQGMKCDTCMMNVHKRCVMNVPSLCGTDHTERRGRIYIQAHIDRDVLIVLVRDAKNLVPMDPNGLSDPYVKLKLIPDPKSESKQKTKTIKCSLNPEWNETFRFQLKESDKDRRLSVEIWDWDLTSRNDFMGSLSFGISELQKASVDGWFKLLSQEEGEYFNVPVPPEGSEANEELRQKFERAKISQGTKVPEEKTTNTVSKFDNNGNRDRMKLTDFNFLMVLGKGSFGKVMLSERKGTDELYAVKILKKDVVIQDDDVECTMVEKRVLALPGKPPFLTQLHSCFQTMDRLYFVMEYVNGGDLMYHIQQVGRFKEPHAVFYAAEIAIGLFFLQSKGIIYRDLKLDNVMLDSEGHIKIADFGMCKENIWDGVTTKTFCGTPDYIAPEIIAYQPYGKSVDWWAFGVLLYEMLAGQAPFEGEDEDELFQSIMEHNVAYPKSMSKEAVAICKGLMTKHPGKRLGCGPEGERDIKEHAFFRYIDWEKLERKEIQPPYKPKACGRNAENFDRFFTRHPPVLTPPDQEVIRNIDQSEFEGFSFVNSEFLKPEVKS

SMILES	inhibition at 1.14 µM [%]
O=C(c1cc(-c2ccc(O)cc2)nc2[nH]nc(C(F)(F)F)c12)N1CCC2CNCC21 (stereo not shown) [Example 408, (Hexahydro-pyrrolo[3,4-b]pyrrol-1-yl)-[6-(4-hydroxy-phenyl)-3-trifluoromethyl-1H-pyrazolo[3,4-b]pyridin-4-yl]-methanone]	21
O=C(c1cc(-c2ccc(O)cc2)nc2[nH]nc(C(F)(F)F)c12)N1CCC2(CCNCC2)C1 [Example 409, (2,8-Diaza-spiro[4.5]dec-2-yl)-[6-(4-hydroxy-phenyl)-3-trifluoromethyl-1H-pyrazolo[3,4-b]pyridin-4-yl]-methanone]	23
O=C(c1cc(-c2ccc(O)cc2)nc2[nH]nc(C(F)(F)F)c12)N1CCC2(CCNC2)CC1 [Example 410, (2,8-Diaza-spiro[4.5]dec-8-yl)-[6-(4-hydroxy-phenyl)-3-trifluoromethyl-1H-pyrazolo[3,4-b]pyridin-4-yl]-methanone]	20
O=C(c1cc(-c2ccc(O)cc2)nc2[nH]nc(C(F)(F)F)c12)N1CCC2(CCNCC2)CC1 [Example 411, (3,9-Diaza-spiro[5.5]undec-3-yl)-[6-(4-hydroxy-phenyl)-3-trifluoromethyl-1H-pyrazolo[3,4-b]pyridin-4-yl]-methanone]	24
O=C(N[C@@H]1CN2CCC1CC2)c1cc(-c2ccc(O)cc2)nc2[nH]nc(C(F)(F)F)c12 [Example 412, 6-(4-Hydroxy-phenyl)-3-trifluoromethyl-1H-pyrazolo[3,4-b]pyridine-4-carboxylic acid [(S)-1-aza-bicyclo[2.2.2]oct-3-yl]-amide]	23
O=C(N[C@H]1CN2CCC1CC2)c1cc(-c2ccc(O)cc2)nc2[nH]nc(C(F)(F)F)c12 [Example 413, 6-(4-Hydroxy-phenyl)-3-trifluoromethyl-1H-pyrazolo[3,4-b]pyridine-4-carboxylic acid [(R)-1-aza-bicyclo[2.2.2]oct-3-yl]-amide]	29
CCN1CCCN(C(=O)c2cc(-c3ccc(O)cc3)nc3[nH]nc(C(F)(F)F)c23)CC1 [Example 414, (4-Ethyl-[1,4]diazepan-1-yl)-[6-(4-hydroxy-phenyl)-3-trifluoromethyl-1H-pyrazolo[3,4-b]pyridin-4-yl]-methanone]	30
Cc1n[nH]c2nc(-c3ccc(O)cc3F)cc(C(=O)N3CCC(N)(c4ccccc4)CC3)c12 [Example 415, (4-Amino-4-phenyl-piperidin-1-yl)-[6-(2-fluoro-4-hydroxy-phenyl)-3-methyl-1H-pyrazolo[3,4-b]pyridin-4-yl]-methanone]	90
CCC1(N)CCN(C(=O)c2cc(-c3ccc(O)cc3F)nc3[nH]nc(C)c23)CC1 [Example 416, (4-Amino-4-ethyl-piperidin-1-yl)-[6-(2-fluoro-4-hydroxy-phenyl)-3-methyl-1H-pyrazolo[3,4-b]pyridin-4-yl]-methanone]	84
Cc1n[nH]c2nc(-c3ccc(O)cc3F)cc(C(=O)N3[C@@H]4CC[C@H]3CNC4)c12 [Example 417, 3,8-Diaza-bicyclo[3.2.1]oct-8-yl-[6-(2-fluoro-4-hydroxy-phenyl)-3-methyl-1H-pyrazolo[3,4-b]pyridin-4-yl]-methanone]	78
Cc1n[nH]c2nc(-c3ccc(O)cc3F)cc(C(=O)N3CCC(C)(N)CC3)c12 [Example 418, (4-Amino-4-methyl-piperidin-1-yl)-[6-(2-fluoro-4-hydroxy-phenyl)-3-methyl-1H-pyrazolo[3,4-b]pyridin-4-yl]-methanone]	30
Cc1n[nH]c2nc(-c3ccc(O)cc3F)cc(C(=O)N3C[C@H]4CNC[C@H]4C3)c12 [Example 419, [6-(2-Fluoro-4-hydroxy-phenyl)-3-methyl-1H-pyrazolo[3,4-b]pyridin-4-yl]-(3aR,6aS)-hexahydro-pyrrolo[3,4-c]pyrrol-2-yl-methanone]	79
CCC[C@@H]1CN(C(=O)c2cc(-c3ccc(O)cc3F)nc3[nH]nc(C)c23)CCN1 [Example 420, [6-(2-Fluoro-4-hydroxy-phenyl)-3-methyl-1H-pyrazolo[3,4-b]pyridin-4-yl]-((R)-3-propyl-piperazin-1-yl)-methanone]	80
Cc1n[nH]c2nc(-c3ccc(O)cc3F)cc(C(=O)N3CCNC(c4ccccc4)C3)c12 (stereo not shown) [Example 421, [6-(2-Fluoro-4-hydroxy-phenyl)-3-methyl-1H-pyrazolo[3,4-b]pyridin-4-yl]-(3-phenyl-piperazin-1-yl)-methanone]	51
CCC[C@H]1CN(C(=O)c2cc(-c3ccc(O)cc3F)nc3[nH]nc(C)c23)CCN1 [Example 422, [6-(2-Fluoro-4-hydroxy-phenyl)-3-methyl-1H-pyrazolo[3,4-b]pyridin-4-yl]-((S)-3-propyl-piperazin-1-yl)-methanone]	95
Cc1n[nH]c2nc(-c3ccc(O)cc3F)cc(C(=O)N3CCNC(C4CC4)C3)c12 (stereo not shown) [Example 423, (3-Cyclopropyl-piperazin-1-yl)-[6-(2-fluoro-4-hydroxy-phenyl)-3-methyl-1H-pyrazolo[3,4-b]pyridin-4-yl]-methanone]	84

SMILES	inhibition at 1.14 µM [%]
Cc1n[nH]c2nc(-c3ccc(O)cc3F)cc(C(=O)N3CCN[C@@H](C)C3)c12 [Example 424, [6-(2-Fluoro-4-hydroxy-phenyl)-3-methyl-1H-pyrazolo[3,4-b]pyridin-4-yl]-((S)-3-methyl-piperazin-1-yl)-methanone]	100
Cc1n[nH]c2nc(-c3ccc(O)cc3F)cc(C(=O)N3CCNC(C)(C)C3)c12 [Example 425, (3,3-Dimethyl-piperazin-1-yl)-[6-(2-fluoro-4-hydroxy-phenyl)-3-methyl-1H-pyrazolo[3,4-b]pyridin-4-yl]-methanone]	88
Cc1n[nH]c2nc(-c3ccc(O)cc3F)cc(C(=O)N3CCN[C@H](C)C3)c12 [Example 426, [6-(2-Fluoro-4-hydroxy-phenyl)-3-methyl-1H-pyrazolo[3,4-b]pyridin-4-yl]-((R)-3-methyl-piperazin-1-yl)-methanone]	87
Cc1n[nH]c2nc(-c3ccc(O)cc3F)cc(C(=O)N3CC(C)(C)NCC3C)c12 (stereo not shown) [Example 427, [6-(2-Fluoro-4-hydroxy-phenyl)-3-methyl-1H-pyrazolo[3,4-b]pyridin-4-yl]-(2,5,5-trimethyl-piperazin-1-yl)-methanone]	99
Cc1n[nH]c2nc(-c3ccc(O)cc3F)cc(C(=O)N3C[C@@H](C)NC[C@H]3C)c12 [Example 428, ((2R,5R)-2,5-Dimethyl-piperazin-1-yl)-[6-(2-fluoro-4-hydroxy-phenyl)-3-methyl-1H-pyrazolo[3,4-b]pyridin-4-yl]-methanone]	35
Cc1n[nH]c2nc(-c3ccc(O)cc3F)cc(C(=O)N3C[C@@H](C)NC[C@@H]3C)c12 [Example 429, ((2S,5R)-2,5-Dimethyl-piperazin-1-yl)-[6-(2-fluoro-4-hydroxy-phenyl)-3-methyl-1H-pyrazolo[3,4-b]pyridin-4-yl]-methanone]	98
Cc1n[nH]c2nc(-c3ccc(O)cc3F)cc(C(=O)N3C[C@H](C)NC[C@@H]3C)c12 [Example 430, ((2S,5S)-2,5-Dimethyl-piperazin-1-yl)-[6-(2-fluoro-4-hydroxy-phenyl)-3-methyl-1H-pyrazolo[3,4-b]pyridin-4-yl]-methanone]	92
CC[C@H]1CNCCN1C(=O)c1cc(-c2ccc(O)cc2F)nc2[nH]nc(C)c12 [Example 431, ((S)-2-Ethyl-piperazin-1-yl)-[6-(2-fluoro-4-hydroxy-phenyl)-3-methyl-1H-pyrazolo[3,4-b]pyridin-4-yl]-methanone]	97
Cc1n[nH]c2nc(-c3ccc(O)cc3F)cc(C(=O)N3CCC(N)(C(F)(F)F)C3)c12 (stereo not shown) [Example 432, (3-Amino-3-trifluoromethyl-pyrrolidin-1-yl)-[6-(2-fluoro-4-hydroxy-phenyl)-3-methyl-1H-pyrazolo[3,4-b]pyridin-4-yl]-methanone]	42
Cc1n[nH]c2nc(-c3ccc(O)cc3F)cc(C(=O)N3CCNCC34CCCC4)c12 [Example 433, (6,9-Diaza-spiro[4.5]dec-6-yl)-[6-(2-fluoro-4-hydroxy-phenyl)-3-methyl-1H-pyrazolo[3,4-b]pyridin-4-yl]-methanone]	98
Cc1n[nH]c2nc(-c3ccc(O)cc3F)cc(C(=O)N3CC(C)NCC3(C)C)c12 (stereo not shown) [Example 434, [6-(2-Fluoro-4-hydroxy-phenyl)-3-methyl-1H-pyrazolo[3,4-b]pyridin-4-yl]-(2,2,5-trimethyl-piperazin-1-yl)-methanone]	106
Cc1n[nH]c2nc(-c3ccc(O)cc3F)cc(C(=O)N3CCNCC3(C)c3ccccc3)c12 (stereo not shown) [Example 435, [6-(2-Fluoro-4-hydroxy-phenyl)-3-methyl-1H-pyrazolo[3,4-b]pyridin-4-yl]-(2-methyl-2-phenyl-piperazin-1-yl)-methanone]	97
CCC1(CC)CNCCN1C(=O)c1cc(-c2ccc(O)cc2F)nc2[nH]nc(C)c12 [Example 436, (2,2-Diethyl-piperazin-1-yl)-[6-(2-fluoro-4-hydroxy-phenyl)-3-methyl-1H-pyrazolo[3,4-b]pyridin-4-yl]-methanone]	100
Cc1n[nH]c2nc(-c3ccc(O)cc3F)cc(C(=O)N3CC(C)(C)NCC34CCCC4)c12 [Example 437, (8,8-Dimethyl-6,9-diaza-spiro[4.5]dec-6-yl)-[6-(2-fluoro-4-hydroxy-phenyl)-3-methyl-1H-pyrazolo[3,4-b]pyridin-4-yl]-methanone]	99
Cc1n[nH]c2nc(-c3ccc(O)cc3F)cc(C(=O)N3CC(C)NCC34CCCC4)c12 (stereo not shown) [Example 438, [6-(2-Fluoro-4-hydroxy-phenyl)-3-methyl-1H-pyrazolo[3,4-b]pyridin-4-yl]-(8-methyl-6,9-diaza-spiro[4.5]dec-6-yl)-methanone]	98

Reference: patent publication US8686150B2 (Sanofi, priority 2011, dated 2014)
